Results published in publication PMC6364417, “Kinase inhibitor library screening identifies synergistic drug combinations effective in sensitive and resistant melanoma cells” (Journal of Experimental & Clinical Cancer Research : CR, 2019).

What was measured:
Assay in all cases: Kinase inhibitor library screening, PrestoBlue cell viability, 1 or 10 μM, 72 h
501Mel cells (parental) = conditions: 501Mel Parental
Outline: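 Kinase inhibitors added at two fixed concentrations; 72 h exposure; PrestoBlue readout; % viability vs untreated; n ≥ 2 per line.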

[1] = test system: A375-GP cells (Dabrafenib-resistant); conditions: A375 GP
[2] = test system: 501Mel-XP cells (Vemurafenib-resistant); conditions: 501Mel XP
IGR37 cells (parental) = conditions: IGR37 Parental
[3] = test system: IGR37-GP cells (Dabrafenib-resistant); conditions: IGR37 GP
A375 cells (parental) = conditions: A375 Parental
[4] = test system: IGR37-XP cells (Vemurafenib-resistant); conditions: IGR37 XP
[5] = test system: A375-XP cells (Vemurafenib-resistant); conditions: A375 XP
[6] = test system: 501Mel-GP cells (Dabrafenib-resistant); conditions: 501Mel GP

Structure (SMILES) | cell viability (kinase inhibitor library screening) (501Mel cells (parental); 1μΜ, in %) | cell viability (kinase inhibitor library screening) (501Mel cells (parental); 10μΜ, in %) | cell viability (kinase inhibitor library screening) ([1]; 10μΜ, in %) | cell viability (kinase inhibitor library screening) ([2]; 1μΜ, in %) | cell viability (kinase inhibitor library screening) ([2]; 10μΜ, in %) | cell viability (kinase inhibitor library screening) (IGR37 cells (parental); 1μΜ, in %) | cell viability (kinase inhibitor library screening) (IGR37 cells (parental); 10μΜ, in %) | cell viability (kinase inhibitor library screening) ([3]; 1μΜ, in %) | cell viability (kinase inhibitor library screening) ([3]; 10μΜ, in %) | cell viability (kinase inhibitor library screening) (A375 cells (parental); 1μΜ, in %) | cell viability (kinase inhibitor library screening) (A375 cells (parental); 10μΜ, in %) | cell viability (kinase inhibitor library screening) ([4]; 10μΜ, in %) | cell viability (kinase inhibitor library screening) ([5]; 1μΜ, in %) | cell viability (kinase inhibitor library screening) ([5]; 10μΜ, in %) | cell viability (kinase inhibitor library screening) ([6]; 1μΜ, in %) | cell viability (kinase inhibitor library screening) ([6]; 10μΜ, in %) | cell viability (kinase inhibitor library screening) ([4]; 1μΜ, in %) | also measured
CC1(C)CNc2cc(NC(=O)c3cccnc3NCc3ccncc3)ccc21 [Motesanib Diphosphate] | 97.3 | 94.6 | 89.9 | 91.0 | 71.5 | 97.7 | 97.0 | 85.5 | 85.5 | 105.3 | 89.5 | 78.2 | 109.8 | 97.0 | 98.5 | 82.7 | – | cell viability (kinase inhibitor library screening) ([1]; 1μΜ, in %): 99.4
CCN(CC)CCNC(=O)c1c(C)[nH]c(/C=C2\C(=O)Nc3ccc(F)cc32)c1C.O=C(O)C[C@H](O)C(=O)O [Sunitinib Malate (Sutent)] | 99.9 | 0.237 | 72.3 | 92.7 | -0.452 | 97.5 | 68.0 | 87.4 | 7.9 | 104.0 | 67.2 | 1.2 | – | 68.1 | – | 1.4 | 100.5 | –
Cc1nc(Nc2ncc(C(=O)Nc3c(C)cccc3Cl)s2)cc(N2CCN(CCO)CC2)n1 [Dasatinib (BMS-354825)] | 91.7 | 73.7 | 48.1 | 88.2 | 63.3 | 98.7 | 80.2 | 91.4 | 66.8 | 68.7 | 30.8 | 39.8 | 70.6 | 57.8 | 96.7 | 77.1 | 88.2 | cell viability (kinase inhibitor library screening) ([1]; 1μΜ, in %): 63.7
Cc1ccc(F)c(NC(=O)Nc2ccc(-c3cccc4[nH]nc(N)c34)cc2)c1 [Linifanib (ABT-869)] | – | – | – | – | – | – | – | – | – | – | – | – | – | – | – | – | – | Cell viability in kinase inhibitor library screening, 501Mel Parental, 1μΜ (501Mel cells (parental); 1μΜ, 72 h, in %): 98.1; Cell viability in kinase inhibitor library screening, A375 GP, 1μΜ ([1]; 1μΜ, 72 h): 102.6; Cell viability in kinase inhibitor library screening, A375 GP, 10μΜ ([1]; 10μΜ, 72 h): 38.3; Cell viability in kinase inhibitor library screening, 501Mel XP, 10μΜ ([2]; 10μΜ, 72 h, in %): 3.8; Cell viability in kinase inhibitor library screening, IGR37 Parental, 1μΜ (IGR37 cells (parental); 1μΜ, 72 h, in %): 99.9; Cell viability in kinase inhibitor library screening, IGR37 Parental, 10μΜ (IGR37 cells (parental); 10μΜ, 72 h, in %): 60.3; Cell viability in kinase inhibitor library screening, IGR37 GP, 10μΜ ([3]; 10μΜ, 72 h): 52.4%; Cell viability in kinase inhibitor library screening, A375 Parental, 10μΜ (A375 cells (parental); 10μΜ, 72 h): 46.3; Cell viability in kinase inhibitor library screening, A375 Parental, 1μΜ (A375 cells (parental); 1μΜ, 72 h): 106.9; Cell viability in kinase inhibitor library screening, IGR37 XP, 10μΜ ([4]; 10μΜ, 72 h): 30.7%; Cell viability in kinase inhibitor library screening, IGR37 XP, 1μΜ ([4]; 1μΜ, 72 h, in %): 102.6; Cell viability in kinase inhibitor library screening, A375 XP, 1μΜ ([5]; 1μΜ, 72 h): 110.5; Cell viability in kinase inhibitor library screening, A375 XP, 10μΜ ([5]; 10μΜ, 72 h): 59.8; Cell viability in kinase inhibitor library screening, 501Mel GP, 1μΜ ([6]; 1μΜ, 72 h, in %): 106.7; Cell viability in kinase inhibitor library screening, 501Mel GP, 10μΜ ([6]; 10μΜ, 72 h, in %): 11.3
Cc1ccc(NC(=O)c2cccc(N(C)C)c2)cc1NC(=O)c1ccc(O)cc1 [ZM 336372] | 98.4 | 89.6 | 82.7 | 90.4 | 83.5 | 102.6 | 105.1 | 99.1 | 96.2 | 103.4 | 91.8 | 93.5 | 103.8 | 95.8 | 108.5 | 81.6 | 108.8 | –
COc1cc(Nc2ncc(F)c(Nc3ccc4c(n3)NC(=O)C(C)(C)O4)n2)cc(OC)c1OC [R406(free base)] | – | 57.6 | 44.5 | 77.6 | 29.6 | 97.4 | 86.8 | 84.7 | 45.4 | 100.1 | 50.6 | 20.0 | 103.9 | 63.6 | 93.8 | 48.0 | 92.0 | –
CN(C)c1ccc(-c2nc3ncc(Cl)c(N4CCN(CC(=O)Nc5nccs5)CC4)c3[nH]2)cc1 [CCT129202] | – | – | – | – | – | – | – | – | – | – | – | – | – | – | – | – | – | cell viability (kinase inhibitor library screening) (501Mel cells (parental); 1μΜ, 72 h): 93.7%; cell viability (kinase inhibitor library screening) (501Mel cells (parental); 10μΜ, 72 h): 52.8%; cell viability (kinase inhibitor library screening) ([1]; 1μΜ, 72 h): 104.8%; cell viability (kinase inhibitor library screening) ([1]; 10μΜ, 72 h): 45.0%; cell viability (kinase inhibitor library screening) ([2]; 1μΜ, 72 h): 85.2%; cell viability (kinase inhibitor library screening) ([2]; 10μΜ, 72 h): 16.7%; cell viability (kinase inhibitor library screening) (IGR37 cells (parental); 1μΜ, 72 h): 95.8%; cell viability (kinase inhibitor library screening) (IGR37 cells (parental); 10μΜ, 72 h): 78.6%; cell viability (kinase inhibitor library screening) ([3]; 1μΜ, 72 h): 88.1%; cell viability (kinase inhibitor library screening) ([3]; 10μΜ, 72 h): 76.6%; cell viability (kinase inhibitor library screening) (A375 cells (parental); 10μΜ, 72 h): 45.9%; cell viability (kinase inhibitor library screening) ([4]; 1μΜ, 72 h): 96.6%; cell viability (kinase inhibitor library screening) ([4]; 10μΜ, 72 h): 40.5%; cell viability (kinase inhibitor library screening) ([5]; 1μΜ, 72 h): 105.5%; cell viability (kinase inhibitor library screening) ([5]; 10μΜ, 72 h): 49.9%; cell viability (kinase inhibitor library screening) ([6]; 1μΜ, 72 h): 99.5%; cell viability (kinase inhibitor library screening) ([6]; 10μΜ, 72 h): 41.1%
